Measurements from PMC4467398, “Preclinical antitumor activity of ST7612AA1: a new oral thiol-based histone deacetylase (HDAC) inhibitor” (Oncotarget, 2014).

System: DOHH2 and TMD8 DLBCL cells
Test: Gene expression profiling (HumanHT-12 v4 BeadChip, limma), ST7612AA1 300 nM 8 hrs vs DMSO
Assay type: cell-based, human
Conditions: 300 nM 8 hrs

CC(=O)SCCCCC[C@H](NC(=O)[C@H]1CCC(=O)N1)C(=O)Nc1ccccc1 [ST7612AA1]
AveExpr.ST7612 1999-08-31 (probe ILMN_1659953): 8.50E-01
AveExpr.ST7612 (probe ILMN_1816244): 7.08E-01
AveExpr.ST7612 (probe ILMN_1827736): 8.76E-01
AveExpr.ST7612 (probe ILMN_1909886): 7.98E-01
AveExpr.ST7612 ABCA7 (probe ILMN_1743205): 7.64E-01
AveExpr.ST7612 ADARB1 (probe ILMN_1679797): 7.60E-01
AveExpr.ST7612 ALDH2 (probe ILMN_1793859): 8.03E-01
AveExpr.ST7612 ALOX5 (probe ILMN_1680996): 8.46E-01
AveExpr.ST7612 AMOT (probe ILMN_1792409): 7.65E-01
AveExpr.ST7612 APAF1 (probe ILMN_1659463): 8.78E-01
AveExpr.ST7612 APLP1 (probe ILMN_1763834): 8.17E-01
AveExpr.ST7612 ARL6IP1 (probe ILMN_1708416): 6.93E-01
AveExpr.ST7612 ATG2A (probe ILMN_1756006): 8.92E-01
AveExpr.ST7612 ATP6V0C (probe ILMN_1773849): 8.22E-01
AveExpr.ST7612 ATP6V1G2 (probe ILMN_1654541): 8.47E-01
AveExpr.ST7612 ATP7B (probe ILMN_1722056): 8.88E-01
AveExpr.ST7612 AVPI1 (probe ILMN_1671731): 8.94E-01
AveExpr.ST7612 AZI1 (probe ILMN_1746206): 7.59E-01
AveExpr.ST7612 BIK (probe ILMN_1770505): 7.57E-01
AveExpr.ST7612 BLVRB (probe ILMN_1797793): 8.74E-01
AveExpr.ST7612 BNIP3L (probe ILMN_1718961): 8.34E-01
AveExpr.ST7612 BPHL (probe ILMN_1657746): 8.91E-01
AveExpr.ST7612 C3orf34 (probe ILMN_1665217): 6.96E-01
AveExpr.ST7612 C4orf32 (probe ILMN_1700257): 8.83E-01
AveExpr.ST7612 C12orf52 (probe ILMN_1667857): 6.98E-01
AveExpr.ST7612 C13orf15 (probe ILMN_1658494): 7.74E-01
AveExpr.ST7612 C14orf173 (probe ILMN_2393450): 7.70E-01
AveExpr.ST7612 C14orf179 (probe ILMN_1756877): 7.81E-01
AveExpr.ST7612 CA2 (probe ILMN_2199439): 7.93E-01
AveExpr.ST7612 CAMLG (probe ILMN_1714599): 7.30E-01
AveExpr.ST7612 CASC4 (probe ILMN_2325574): 6.85E-01
AveExpr.ST7612 CBX7 (probe ILMN_1657361): 7.49E-01
AveExpr.ST7612 CCDC24 (probe ILMN_1718771): 6.89E-01
AveExpr.ST7612 CCDC92 (probe ILMN_1731107): 8.05E-01
AveExpr.ST7612 CD74 (probe ILMN_1761464): 8.47E-01
AveExpr.ST7612 CD74 (probe ILMN_2379644): 7.27E-01
AveExpr.ST7612 CDC2L6 (probe ILMN_1676891): 6.96E-01
AveExpr.ST7612 CDC42EP5 (probe ILMN_1774982): 8.75E-01
AveExpr.ST7612 CDK2AP2 (probe ILMN_1690653): 8.01E-01
AveExpr.ST7612 CECR1 (probe ILMN_1751851): 8.43E-01
AveExpr.ST7612 CLCC1 (probe ILMN_1671933): 8.48E-01
AveExpr.ST7612 CLIC4 (probe ILMN_2063586): 7.49E-01
AveExpr.ST7612 CMTM8 (probe ILMN_1710124): 7.00E-01
AveExpr.ST7612 COTL1 (probe ILMN_1788283): 6.87E-01
AveExpr.ST7612 CRIP1 (probe ILMN_1656920): 8.56E-01
AveExpr.ST7612 CRYM (probe ILMN_1779241): 8.32E-01
AveExpr.ST7612 CSRP1 (probe ILMN_1811921): 7.01E-01
AveExpr.ST7612 CSTB (probe ILMN_1761797): 8.06E-01
AveExpr.ST7612 CTSB (probe ILMN_2359742): 8.56E-01
AveExpr.ST7612 CXADR (probe ILMN_1796925): 8.18E-01
AveExpr.ST7612 CXorf57 (probe ILMN_1703279): 8.25E-01
AveExpr.ST7612 CYB5R1 (probe ILMN_1729237): 7.59E-01
AveExpr.ST7612 CYB5R3 (probe ILMN_1740441): 7.06E-01
AveExpr.ST7612 CYP2R1 (probe ILMN_2119774): 7.88E-01
AveExpr.ST7612 DEF8 (probe ILMN_1767509): 8.37E-01
AveExpr.ST7612 DGCR6L (probe ILMN_3245688): 7.47E-01
AveExpr.ST7612 DNMT3B (probe ILMN_1794692): 8.14E-01
AveExpr.ST7612 DSTN (probe ILMN_1706426): 7.52E-01
AveExpr.ST7612 DYNC1H1 (probe ILMN_1780302): 6.97E-01
AveExpr.ST7612 DYNLL2 (probe ILMN_1772796): 8.61E-01
AveExpr.ST7612 DYRK3 (probe ILMN_2400322): 6.97E-01
AveExpr.ST7612 DYRK3 (probe ILMN_2400326): 8.26E-01
AveExpr.ST7612 ECHS1 (probe ILMN_1718132): 7.78E-01
AveExpr.ST7612 EGR1 (probe ILMN_1762899): 8.42E-01
AveExpr.ST7612 ELOF1 (probe ILMN_1723185): 7.14E-01
AveExpr.ST7612 ENC1 (probe ILMN_1779147): 7.93E-01
AveExpr.ST7612 ENO2 (probe ILMN_1765796): 7.11E-01
AveExpr.ST7612 ERRFI1 (probe ILMN_1665510): 7.44E-01
AveExpr.ST7612 ESAM (probe ILMN_1668092): 7.54E-01
AveExpr.ST7612 F11R (probe ILMN_2342033): 8.81E-01
AveExpr.ST7612 FAM65A (probe ILMN_1680037): 7.70E-01
AveExpr.ST7612 FAM116B (probe ILMN_1659029): 7.74E-01
AveExpr.ST7612 FAM120B (probe ILMN_1679641): 7.62E-01
AveExpr.ST7612 FAM149B1 (probe ILMN_3245452): 7.21E-01
AveExpr.ST7612 FAM167A (probe ILMN_3248511): 7.13E-01
AveExpr.ST7612 FBXO18 (probe ILMN_1729430): 7.97E-01
AveExpr.ST7612 FCGRT (probe ILMN_1705302): 6.92E-01
AveExpr.ST7612 FGD2 (probe ILMN_2115005): 7.14E-01
AveExpr.ST7612 FGF9 (probe ILMN_1762531): 7.84E-01
AveExpr.ST7612 FHL1 (probe ILMN_1805842): 7.76E-01
AveExpr.ST7612 FLJ22795 (probe ILMN_2150802): 8.56E-01
AveExpr.ST7612 FOXC1 (probe ILMN_1738401): 8.63E-01
AveExpr.ST7612 FOXO1 (probe ILMN_1738816): 8.61E-01
AveExpr.ST7612 FOXO4 (probe ILMN_1712095): 6.93E-01
AveExpr.ST7612 FSD1 (probe ILMN_1813490): 7.25E-01
AveExpr.ST7612 FUCA1 (probe ILMN_1752728): 8.57E-01
AveExpr.ST7612 G6PD (probe ILMN_1697559): 6.93E-01
AveExpr.ST7612 GABARAPL2 (probe ILMN_1796458): 7.62E-01
AveExpr.ST7612 GAMT (probe ILMN_1756469): 8.74E-01
AveExpr.ST7612 GATM (probe ILMN_1729180): 7.75E-01
AveExpr.ST7612 GCH1 (probe ILMN_1812759): 7.11E-01
AveExpr.ST7612 GOLGB1 (probe ILMN_1747935): 7.13E-01
AveExpr.ST7612 GPT2 (probe ILMN_1684158): 8.12E-01
AveExpr.ST7612 GRN (probe ILMN_1724250): 8.24E-01
AveExpr.ST7612 HABP4 (probe ILMN_2107991): 7.82E-01
AveExpr.ST7612 HAGH (probe ILMN_1772731): 8.84E-01
AveExpr.ST7612 HERC1 (probe ILMN_1786211): 7.40E-01
AveExpr.ST7612 HERPUD1 (probe ILMN_2374159): 8.50E-01
AveExpr.ST7612 HEY1 (probe ILMN_1788203): 8.91E-01
AveExpr.ST7612 HEY2 (probe ILMN_1682034): 7.56E-01
AveExpr.ST7612 HIST1H1C (probe ILMN_1757406): 8.24E-01
AveExpr.ST7612 HIST2H2AA3 (probe ILMN_2144426): 8.03E-01
AveExpr.ST7612 HLA-DPA1 (probe ILMN_1772218): 8.12E-01
AveExpr.ST7612 HLA-DQA1 (probe ILMN_1808405): 8.25E-01
AveExpr.ST7612 HLA-DRB4 (probe ILMN_1752592): 7.27E-01
AveExpr.ST7612 HLA-E (probe ILMN_1765258): 8.07E-01
AveExpr.ST7612 HLTF (probe ILMN_1673820): 7.48E-01
AveExpr.ST7612 HOOK2 (probe ILMN_1682147): 7.36E-01
AveExpr.ST7612 HSPA1B (probe ILMN_1660436): 7.16E-01
AveExpr.ST7612 ID1 (probe ILMN_1664861): 7.75E-01
AveExpr.ST7612 IFFO1 (probe ILMN_2348268): 8.07E-01
AveExpr.ST7612 IGSF3 (probe ILMN_1704353): 8.50E-01
AveExpr.ST7612 ITGB1 (probe ILMN_1714820): 7.06E-01
AveExpr.ST7612 ITPKA (probe ILMN_1776516): 7.10E-01
AveExpr.ST7612 JAK1 (probe ILMN_1793384): 7.91E-01
AveExpr.ST7612 KLHL5 (probe ILMN_1706687): 8.05E-01
AveExpr.ST7612 KLRAQ1 (probe ILMN_3271092): 7.11E-01
AveExpr.ST7612 LCMT1 (probe ILMN_1688452): 7.21E-01
AveExpr.ST7612 LCMT1 (probe ILMN_2336186): 7.52E-01
AveExpr.ST7612 LMNA (probe ILMN_1737394): 7.98E-01
AveExpr.ST7612 LOC151162 (probe ILMN_3238058): 7.72E-01
AveExpr.ST7612 LOC253039 (probe ILMN_3236498): 8.10E-01
AveExpr.ST7612 LOC283683 (probe ILMN_1659327): 8.30E-01
AveExpr.ST7612 LOC388588 (probe ILMN_1749834): 7.07E-01
AveExpr.ST7612 LOC654191 (probe ILMN_1762308): 7.84E-01
AveExpr.ST7612 LOC727935 (probe ILMN_1691616): 7.14E-01
AveExpr.ST7612 LOC728014 (probe ILMN_1711699): 8.58E-01
AveExpr.ST7612 LOC729495 (probe ILMN_3297510): 7.45E-01
AveExpr.ST7612 LOC730101 (probe ILMN_3305735): 7.41E-01
AveExpr.ST7612 LOC730415 (probe ILMN_3228688): 6.95E-01
AveExpr.ST7612 LOC731314 (probe ILMN_1785756): 8.31E-01
AveExpr.ST7612 LOC100128163 (probe ILMN_3182893): 7.83E-01
AveExpr.ST7612 LOC100131727 (probe ILMN_3292990): 7.73E-01
AveExpr.ST7612 LOC100133583 (probe ILMN_3214389): 8.94E-01
AveExpr.ST7612 LOC100133678 (probe ILMN_3249667): 8.11E-01
AveExpr.ST7612 LOC100134361 (probe ILMN_3241081): 8.59E-01
AveExpr.ST7612 LRCH4 (probe ILMN_2157075): 8.54E-01
AveExpr.ST7612 LRRC1 (probe ILMN_1755383): 7.83E-01
AveExpr.ST7612 LTA4H (probe ILMN_1690342): 7.50E-01
AveExpr.ST7612 LYRM5 (probe ILMN_1744534): 7.90E-01
AveExpr.ST7612 LYSMD4 (probe ILMN_2159859): 6.95E-01
AveExpr.ST7612 MAP1LC3B (probe ILMN_1703244): 7.73E-01
AveExpr.ST7612 MAP2K1 (probe ILMN_1694240): 7.15E-01
AveExpr.ST7612 MAPRE2 (probe ILMN_1695276): 7.72E-01
AveExpr.ST7612 MARCKSL1 (probe ILMN_1714433): 8.47E-01
AveExpr.ST7612 MAST3 (probe ILMN_1738749): 7.21E-01
AveExpr.ST7612 MNS1 (probe ILMN_2157240): 7.07E-01
AveExpr.ST7612 MTE (probe ILMN_2136089): 8.56E-01
AveExpr.ST7612 MYBL1 (probe ILMN_3241046): 7.69E-01
